According to ChEMBL document CHEMBL1201862, “PubChem BioAssay data set” (2004):
Activity calls are given as the source filed them.

Assays:
[1] = biological target: Voltage-dependent T-type calcium channel subunit alpha-1H (Homo sapiens, UniProt O95180); format: functional;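 further: channel activity triggered by adding a high calcium stimulation buffer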
[2] = biological target: Cytochrome P450 2D6 (Homo sapiens, UniProt P10635);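 further: CYP2D6 member of a cytochrome P450 panel assay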
[3] = biological target: T1, Cytochrome P450 3A4 (Homo sapiens, UniProt P08684);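 further: CYP3A4 tested as one member of a cytochrome P450 panel screen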
T1 sequence (P08684 whole entry): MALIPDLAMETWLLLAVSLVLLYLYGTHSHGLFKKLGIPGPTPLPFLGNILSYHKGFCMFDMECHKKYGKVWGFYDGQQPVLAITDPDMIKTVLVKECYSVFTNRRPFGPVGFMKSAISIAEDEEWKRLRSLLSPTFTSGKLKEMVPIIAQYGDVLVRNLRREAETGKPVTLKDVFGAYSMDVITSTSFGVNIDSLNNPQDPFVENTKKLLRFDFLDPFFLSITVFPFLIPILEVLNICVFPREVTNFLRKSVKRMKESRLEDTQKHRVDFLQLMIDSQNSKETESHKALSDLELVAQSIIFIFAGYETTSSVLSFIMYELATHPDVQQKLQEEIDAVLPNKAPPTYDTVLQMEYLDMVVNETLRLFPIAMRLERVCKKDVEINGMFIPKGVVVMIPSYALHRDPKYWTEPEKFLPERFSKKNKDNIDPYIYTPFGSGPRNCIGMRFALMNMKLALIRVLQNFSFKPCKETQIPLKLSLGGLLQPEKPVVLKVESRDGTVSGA

[4] = biological target: T2, Heat shock factor protein 1 (Mus musculus, UniProt P38532); experiment: decrease of HSF1-responsive luciferase luminescence – cell-based, NIH3T3, dose retest, confirmation (AID 2382); format: functional;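 further: NIH3T3 fibroblasts with HSF1-driven luciferase reporter stressed by proteasome inhibitor MG132; luminescence from HSF1-driven luciferase expression after 8 hours of MG132 stress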
T2 sequence (P38532 whole entry): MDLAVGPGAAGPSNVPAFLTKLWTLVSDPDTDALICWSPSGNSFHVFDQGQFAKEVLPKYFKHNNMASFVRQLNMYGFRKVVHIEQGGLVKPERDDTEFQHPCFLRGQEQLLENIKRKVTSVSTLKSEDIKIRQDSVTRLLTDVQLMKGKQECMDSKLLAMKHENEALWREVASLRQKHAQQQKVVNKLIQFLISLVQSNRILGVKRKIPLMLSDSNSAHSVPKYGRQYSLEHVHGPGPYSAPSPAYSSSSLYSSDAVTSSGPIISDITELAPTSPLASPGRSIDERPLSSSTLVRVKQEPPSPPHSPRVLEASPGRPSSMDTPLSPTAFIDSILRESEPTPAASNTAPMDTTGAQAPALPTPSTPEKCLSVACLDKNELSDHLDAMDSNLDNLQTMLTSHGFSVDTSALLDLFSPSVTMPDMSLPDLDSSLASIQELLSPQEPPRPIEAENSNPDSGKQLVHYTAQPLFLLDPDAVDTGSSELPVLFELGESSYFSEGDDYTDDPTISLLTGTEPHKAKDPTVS

[5] = biological target: Photoreceptor-specific nuclear receptor (Homo sapiens, UniProt Q9Y5X4); format: functional, cell-based;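 further: CHO-S cells with Gal4-NCOR and VP16-NR2E3 two-hybrid luciferase reporter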
Chain of Photoreceptor-specific nuclear receptor (Q9Y5X4 whole entry, the tested form may be a part): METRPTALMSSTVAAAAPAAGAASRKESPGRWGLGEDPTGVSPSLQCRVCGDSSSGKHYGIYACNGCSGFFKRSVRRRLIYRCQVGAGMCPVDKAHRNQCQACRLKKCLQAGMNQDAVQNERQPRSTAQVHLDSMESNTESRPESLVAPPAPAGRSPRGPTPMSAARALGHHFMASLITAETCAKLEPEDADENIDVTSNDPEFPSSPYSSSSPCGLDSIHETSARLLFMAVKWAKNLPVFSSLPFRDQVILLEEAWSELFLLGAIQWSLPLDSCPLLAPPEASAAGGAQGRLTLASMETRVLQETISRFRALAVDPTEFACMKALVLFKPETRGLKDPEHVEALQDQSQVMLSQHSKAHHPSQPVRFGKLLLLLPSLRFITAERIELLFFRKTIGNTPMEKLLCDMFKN

[6] = decrease of insulin promoter-GFP reporter – imaging, high-content screening, mouse beta cells (AID 1628); format: functional; details: MIN6
[7] = MIN6 cell viability loss – mouse insulinoma, cytotoxicity control, dose response (AID 2122); format: functional;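 further: confirmatory high-throughput counterscreen run to flag cytotoxic compounds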
[8] = biological target: Cytochrome P450 2C9 (Homo sapiens, UniProt P11712)
Chain of Cytochrome P450 2C9 (P11712 whole entry): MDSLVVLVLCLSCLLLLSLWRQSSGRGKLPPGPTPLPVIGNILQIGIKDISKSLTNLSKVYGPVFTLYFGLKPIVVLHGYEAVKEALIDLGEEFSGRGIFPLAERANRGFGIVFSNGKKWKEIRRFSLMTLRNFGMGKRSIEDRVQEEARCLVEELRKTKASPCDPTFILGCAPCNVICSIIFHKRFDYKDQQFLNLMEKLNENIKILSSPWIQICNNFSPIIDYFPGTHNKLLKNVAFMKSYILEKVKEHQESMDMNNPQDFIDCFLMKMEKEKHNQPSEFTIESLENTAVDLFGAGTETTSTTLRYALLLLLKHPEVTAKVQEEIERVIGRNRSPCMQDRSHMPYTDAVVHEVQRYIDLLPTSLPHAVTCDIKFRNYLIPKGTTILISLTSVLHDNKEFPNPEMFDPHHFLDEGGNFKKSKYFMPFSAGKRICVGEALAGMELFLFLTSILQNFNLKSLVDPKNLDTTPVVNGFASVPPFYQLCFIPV

[9] = biological target: Cytochrome P450 2C19 (Homo sapiens, UniProt P33261); experiment: Cytochrome panel assay with activity outcomes. Panel member name: p450-cyp2c19 Compounds with AC50 equal or less than 10 uM are considered active; format: functional
Chain of Cytochrome P450 2C19 (P33261 whole entry): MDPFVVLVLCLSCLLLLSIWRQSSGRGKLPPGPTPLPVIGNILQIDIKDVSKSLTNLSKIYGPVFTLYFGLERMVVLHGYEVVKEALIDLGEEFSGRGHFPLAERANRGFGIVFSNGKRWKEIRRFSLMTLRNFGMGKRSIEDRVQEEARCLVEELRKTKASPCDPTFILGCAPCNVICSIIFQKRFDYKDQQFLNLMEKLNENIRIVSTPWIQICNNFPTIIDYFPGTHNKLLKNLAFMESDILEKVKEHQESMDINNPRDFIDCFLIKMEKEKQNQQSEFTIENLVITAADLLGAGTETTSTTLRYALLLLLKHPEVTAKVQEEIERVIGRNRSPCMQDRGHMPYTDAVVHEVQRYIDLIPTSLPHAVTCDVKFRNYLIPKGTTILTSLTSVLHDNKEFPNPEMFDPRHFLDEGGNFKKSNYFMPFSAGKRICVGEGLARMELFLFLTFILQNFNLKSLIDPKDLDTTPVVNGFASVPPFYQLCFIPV

[10] = biological target: T1, Cytochrome P450 3A4; remark: listed apart in the source
[11] = system: INS1; experiment: INS-1E survival protection against cytokine death – cell-based, luminescence, retest, dose response (AID 449756); format: functional; details: Rattus norvegicus;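 further: cell death triggered by IL-1 beta plus TNF-alpha plus IFN-gamma mixture; protective hits raise ATP signal compared with cytokine alone wells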
[12] = biological target: T3, Lysine-specific demethylase 4A (Homo sapiens, UniProt O75164); experiment: inhibition of JMJD2A H3K9me3 demethylation – biochemical, DELFIA europium, cherry-picked samples, selectivity assay for GASC-1 inhibitor project, dose response (AID 488840)
T3 sequence (O75164 whole entry): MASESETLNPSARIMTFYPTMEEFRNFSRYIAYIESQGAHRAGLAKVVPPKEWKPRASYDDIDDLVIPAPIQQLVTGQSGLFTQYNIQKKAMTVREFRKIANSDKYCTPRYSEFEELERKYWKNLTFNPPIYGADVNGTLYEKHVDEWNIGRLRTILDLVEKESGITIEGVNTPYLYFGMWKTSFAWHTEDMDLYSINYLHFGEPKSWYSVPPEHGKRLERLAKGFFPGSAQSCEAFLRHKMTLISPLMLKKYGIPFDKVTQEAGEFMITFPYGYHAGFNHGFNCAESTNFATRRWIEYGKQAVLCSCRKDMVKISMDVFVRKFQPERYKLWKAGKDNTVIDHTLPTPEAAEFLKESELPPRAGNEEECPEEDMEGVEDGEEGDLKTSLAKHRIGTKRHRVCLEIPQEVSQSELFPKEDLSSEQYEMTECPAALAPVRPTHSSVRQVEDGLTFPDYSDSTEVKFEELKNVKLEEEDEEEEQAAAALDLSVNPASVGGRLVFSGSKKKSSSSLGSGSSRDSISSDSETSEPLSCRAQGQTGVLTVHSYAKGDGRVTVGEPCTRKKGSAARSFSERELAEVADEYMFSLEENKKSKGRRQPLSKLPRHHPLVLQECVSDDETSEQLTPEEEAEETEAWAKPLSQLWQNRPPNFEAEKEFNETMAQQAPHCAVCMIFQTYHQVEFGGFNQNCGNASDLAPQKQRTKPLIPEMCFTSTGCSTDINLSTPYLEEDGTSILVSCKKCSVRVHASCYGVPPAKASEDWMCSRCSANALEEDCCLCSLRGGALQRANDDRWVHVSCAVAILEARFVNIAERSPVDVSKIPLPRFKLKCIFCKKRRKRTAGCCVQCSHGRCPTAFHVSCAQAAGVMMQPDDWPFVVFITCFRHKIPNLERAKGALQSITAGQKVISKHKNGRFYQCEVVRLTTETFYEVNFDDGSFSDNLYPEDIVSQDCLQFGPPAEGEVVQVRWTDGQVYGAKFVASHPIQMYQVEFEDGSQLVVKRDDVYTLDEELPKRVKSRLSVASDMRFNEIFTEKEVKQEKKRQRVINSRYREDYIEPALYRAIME

[13] = biological target: T4, Tyrosine-protein phosphatase non-receptor type 7 (Homo sapiens, UniProt P35236); experiment: inhibition of hematopoietic tyrosine phosphatase HePTP – biochemical, set 2, SAR follow-up (AID 449736); format: functional
T4 sequence (P35236 whole entry): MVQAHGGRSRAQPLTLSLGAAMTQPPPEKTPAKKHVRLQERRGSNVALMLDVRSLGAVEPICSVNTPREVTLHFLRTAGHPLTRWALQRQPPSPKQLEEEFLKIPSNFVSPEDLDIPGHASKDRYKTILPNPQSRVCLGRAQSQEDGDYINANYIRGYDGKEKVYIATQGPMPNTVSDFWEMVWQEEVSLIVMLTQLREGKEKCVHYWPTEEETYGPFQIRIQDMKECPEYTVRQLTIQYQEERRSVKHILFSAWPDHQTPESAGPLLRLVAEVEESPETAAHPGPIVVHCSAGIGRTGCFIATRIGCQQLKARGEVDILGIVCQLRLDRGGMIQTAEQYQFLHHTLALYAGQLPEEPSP

[14] = biological target: T5, Tyrosine-protein phosphatase non-receptor type 22 (Homo sapiens, UniProt Q9Y2R2); experiment: SAR LYP1 Fluorescent Assay using OMFP substrate for In Vitro dose response studies - Set 2. [Related pubchem assays (depositor defined):AID1779, AID1784, AID2140, AID449726, AID488869]; format: functional
T5 sequence (Q9Y2R2 whole entry): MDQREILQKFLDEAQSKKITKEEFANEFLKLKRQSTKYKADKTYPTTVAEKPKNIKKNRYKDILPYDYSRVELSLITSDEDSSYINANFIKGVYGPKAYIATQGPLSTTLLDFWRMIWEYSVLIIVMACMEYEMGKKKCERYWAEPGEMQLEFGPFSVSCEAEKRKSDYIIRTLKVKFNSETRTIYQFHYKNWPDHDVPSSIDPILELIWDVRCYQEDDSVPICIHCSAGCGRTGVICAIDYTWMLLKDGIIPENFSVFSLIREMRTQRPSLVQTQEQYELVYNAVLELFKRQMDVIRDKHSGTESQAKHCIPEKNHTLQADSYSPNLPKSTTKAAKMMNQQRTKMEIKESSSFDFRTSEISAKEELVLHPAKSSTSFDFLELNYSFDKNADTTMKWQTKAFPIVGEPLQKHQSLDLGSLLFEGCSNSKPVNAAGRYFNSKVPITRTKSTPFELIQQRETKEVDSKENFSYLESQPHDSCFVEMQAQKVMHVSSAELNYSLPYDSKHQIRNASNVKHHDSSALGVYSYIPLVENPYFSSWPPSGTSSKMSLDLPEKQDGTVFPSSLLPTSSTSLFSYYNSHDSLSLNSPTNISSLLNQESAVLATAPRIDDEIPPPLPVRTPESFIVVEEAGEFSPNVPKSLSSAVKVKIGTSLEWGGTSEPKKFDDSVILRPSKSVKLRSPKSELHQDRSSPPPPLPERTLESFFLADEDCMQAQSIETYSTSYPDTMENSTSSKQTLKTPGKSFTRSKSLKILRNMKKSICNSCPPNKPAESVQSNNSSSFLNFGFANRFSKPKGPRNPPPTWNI

[15] = biological target: T5, Tyrosine-protein phosphatase non-receptor type 22; experiment: SAR LYP1 Fluorescent Assay using pCAP substrate for In Vitro dose response studies - Set 2. [Related pubchem assays (depositor defined):AID1779, AID1784, AID2135, AID449727]; format: functional
[16] = biological target: T5, Tyrosine-protein phosphatase non-receptor type 22; experiment: SAR LYP1 Fluorescent Assay using OMFP substrate for In Vitro dose response studies - Set 3. [Related pubchem assays (depositor defined):AID1779, AID1784, AID2140, AID2686]; format: functional
[17] = biological target: T5, Tyrosine-protein phosphatase non-receptor type 22; experiment: inhibition of lymphoid tyrosine phosphatase LYP – biochemical, pCAP fluorogenic substrate, fluorescence, set 3, SAR follow-up (AID 449727); format: functional
[18] = biological target: T6, Tyrosine-protein phosphatase non-receptor type 12 (Homo sapiens, UniProt Q05209); experiment: SAR Selectivity Analysis of small molecule inhibitors of PEST using pCAP in a fluorescence assay. [Related pubchem assays (depositor defined):AID1779, AID1784, AID2135]; format: functional
T6 sequence (Q05209 whole entry): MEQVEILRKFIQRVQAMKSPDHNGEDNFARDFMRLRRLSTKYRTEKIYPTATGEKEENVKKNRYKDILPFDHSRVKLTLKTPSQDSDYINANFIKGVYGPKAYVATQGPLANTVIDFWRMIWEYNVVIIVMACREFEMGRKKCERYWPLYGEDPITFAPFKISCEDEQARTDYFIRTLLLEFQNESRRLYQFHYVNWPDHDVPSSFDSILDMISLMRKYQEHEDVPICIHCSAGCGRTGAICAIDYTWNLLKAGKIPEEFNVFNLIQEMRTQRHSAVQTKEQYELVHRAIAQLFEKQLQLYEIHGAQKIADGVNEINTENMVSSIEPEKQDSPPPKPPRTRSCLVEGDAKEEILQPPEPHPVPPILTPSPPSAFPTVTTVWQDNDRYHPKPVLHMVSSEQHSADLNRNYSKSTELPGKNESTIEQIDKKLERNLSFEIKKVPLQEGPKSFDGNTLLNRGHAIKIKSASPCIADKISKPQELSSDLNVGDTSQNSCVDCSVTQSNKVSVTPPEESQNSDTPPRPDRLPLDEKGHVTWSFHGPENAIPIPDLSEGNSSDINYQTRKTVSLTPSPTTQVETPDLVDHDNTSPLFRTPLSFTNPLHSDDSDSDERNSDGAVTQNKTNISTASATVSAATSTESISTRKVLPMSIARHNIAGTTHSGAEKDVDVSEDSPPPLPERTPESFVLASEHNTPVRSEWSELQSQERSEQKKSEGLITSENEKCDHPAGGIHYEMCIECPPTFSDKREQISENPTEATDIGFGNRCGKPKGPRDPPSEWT

Chain of Cytochrome P450 2D6 (P10635 whole entry): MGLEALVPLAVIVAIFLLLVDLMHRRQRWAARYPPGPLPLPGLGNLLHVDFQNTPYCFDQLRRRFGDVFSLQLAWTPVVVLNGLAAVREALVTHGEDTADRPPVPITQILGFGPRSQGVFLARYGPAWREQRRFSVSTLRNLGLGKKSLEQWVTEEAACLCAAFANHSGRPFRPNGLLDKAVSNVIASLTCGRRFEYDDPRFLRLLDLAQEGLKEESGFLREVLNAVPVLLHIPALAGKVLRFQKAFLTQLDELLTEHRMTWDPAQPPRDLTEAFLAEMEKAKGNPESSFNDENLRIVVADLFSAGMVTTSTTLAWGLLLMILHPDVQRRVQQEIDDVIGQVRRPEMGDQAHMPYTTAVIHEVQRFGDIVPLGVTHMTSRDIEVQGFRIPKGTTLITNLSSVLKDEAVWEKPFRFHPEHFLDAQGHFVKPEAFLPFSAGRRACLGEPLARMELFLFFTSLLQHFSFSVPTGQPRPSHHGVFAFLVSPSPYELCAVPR
Chain of Voltage-dependent T-type calcium channel subunit alpha-1H (O95180 whole entry): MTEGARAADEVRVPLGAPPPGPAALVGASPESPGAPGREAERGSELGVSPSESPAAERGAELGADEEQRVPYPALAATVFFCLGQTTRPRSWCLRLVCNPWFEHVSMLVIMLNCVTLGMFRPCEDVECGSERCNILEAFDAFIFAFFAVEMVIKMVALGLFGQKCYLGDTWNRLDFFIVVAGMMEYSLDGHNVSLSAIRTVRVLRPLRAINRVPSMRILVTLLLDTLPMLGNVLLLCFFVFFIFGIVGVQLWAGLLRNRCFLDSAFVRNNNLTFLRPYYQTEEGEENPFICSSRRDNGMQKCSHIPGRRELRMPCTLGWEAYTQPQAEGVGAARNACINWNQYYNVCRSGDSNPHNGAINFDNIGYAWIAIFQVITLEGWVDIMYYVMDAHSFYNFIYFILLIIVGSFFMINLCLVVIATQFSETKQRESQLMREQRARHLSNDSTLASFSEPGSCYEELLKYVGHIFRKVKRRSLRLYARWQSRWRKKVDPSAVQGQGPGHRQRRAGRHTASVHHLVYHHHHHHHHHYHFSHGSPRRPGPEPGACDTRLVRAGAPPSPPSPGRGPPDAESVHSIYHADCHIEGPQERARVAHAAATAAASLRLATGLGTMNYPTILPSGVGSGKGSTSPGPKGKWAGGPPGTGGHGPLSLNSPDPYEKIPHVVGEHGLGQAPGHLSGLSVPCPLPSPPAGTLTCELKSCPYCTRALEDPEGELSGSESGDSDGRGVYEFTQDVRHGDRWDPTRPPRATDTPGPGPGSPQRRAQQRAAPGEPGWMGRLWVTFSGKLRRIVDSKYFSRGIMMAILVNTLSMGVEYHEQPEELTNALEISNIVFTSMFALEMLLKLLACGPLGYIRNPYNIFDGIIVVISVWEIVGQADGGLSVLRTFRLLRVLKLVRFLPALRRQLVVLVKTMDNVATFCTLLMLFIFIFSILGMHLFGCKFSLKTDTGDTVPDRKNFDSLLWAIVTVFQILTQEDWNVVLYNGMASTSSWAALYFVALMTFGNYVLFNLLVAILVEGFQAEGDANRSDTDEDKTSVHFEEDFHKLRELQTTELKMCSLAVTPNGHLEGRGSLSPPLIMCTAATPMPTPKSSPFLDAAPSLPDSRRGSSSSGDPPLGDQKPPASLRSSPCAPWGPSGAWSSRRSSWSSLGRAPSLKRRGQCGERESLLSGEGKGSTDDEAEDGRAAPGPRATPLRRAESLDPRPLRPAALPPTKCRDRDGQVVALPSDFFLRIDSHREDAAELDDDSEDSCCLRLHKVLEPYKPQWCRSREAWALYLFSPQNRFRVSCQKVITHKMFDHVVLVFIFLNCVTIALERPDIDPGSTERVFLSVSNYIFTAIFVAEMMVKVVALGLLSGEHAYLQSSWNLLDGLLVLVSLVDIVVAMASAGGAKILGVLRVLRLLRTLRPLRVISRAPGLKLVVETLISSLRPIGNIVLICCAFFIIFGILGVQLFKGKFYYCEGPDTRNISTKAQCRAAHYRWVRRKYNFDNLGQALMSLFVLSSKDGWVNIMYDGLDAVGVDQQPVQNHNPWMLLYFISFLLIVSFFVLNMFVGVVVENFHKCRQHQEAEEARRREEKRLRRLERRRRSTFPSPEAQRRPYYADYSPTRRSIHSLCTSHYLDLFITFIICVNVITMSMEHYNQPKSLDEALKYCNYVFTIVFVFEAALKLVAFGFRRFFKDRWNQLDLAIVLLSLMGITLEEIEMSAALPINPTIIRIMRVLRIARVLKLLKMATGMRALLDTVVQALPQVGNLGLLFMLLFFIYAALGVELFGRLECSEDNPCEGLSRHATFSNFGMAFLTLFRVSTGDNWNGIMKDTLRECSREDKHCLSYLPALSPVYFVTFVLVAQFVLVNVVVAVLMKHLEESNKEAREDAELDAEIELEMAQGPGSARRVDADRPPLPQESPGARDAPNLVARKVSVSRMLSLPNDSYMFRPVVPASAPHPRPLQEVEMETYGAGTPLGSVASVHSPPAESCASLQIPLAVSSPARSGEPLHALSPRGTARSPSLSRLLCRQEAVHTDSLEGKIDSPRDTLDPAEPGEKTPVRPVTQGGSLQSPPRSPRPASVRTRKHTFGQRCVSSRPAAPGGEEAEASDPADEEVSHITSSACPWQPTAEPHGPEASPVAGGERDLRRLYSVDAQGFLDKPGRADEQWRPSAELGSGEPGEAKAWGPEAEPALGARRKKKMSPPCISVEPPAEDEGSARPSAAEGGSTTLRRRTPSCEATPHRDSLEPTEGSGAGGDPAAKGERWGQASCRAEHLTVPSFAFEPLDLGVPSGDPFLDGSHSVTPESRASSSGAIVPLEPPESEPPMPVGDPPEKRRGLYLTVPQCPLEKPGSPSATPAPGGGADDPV

Compound: O=S(=O)(Cc1cc(Oc2ccccc2)nc(-c2ccccc2)n1)c1ccccc1
- EC50 [1]: 19.2 µM (active)
- AC50 [2]: inconclusive
- AC50 [3]: inconclusive
- EC50 [4]: > 195 µM (not active)

Compound: Cc1nc2ncnn2c(N2CCN(c3cccc(C(F)(F)F)c3)CC2)c1C
- IC50 [5]: 0.838 µM (active)
- IC50 [6]: 2.94 µM (active)
- IC50 [7]: 3.77 µM (active)

Compound: CC1(C)[C@@H]2CC[C@@](C)(C2)[C@H]1OC(=O)c1ccccc1C(=O)O
- AC50 [8]: 3.16 µM (inconclusive)
- AC50 [2]: inconclusive
- AC50 [9]: inconclusive
- AC50 [10]: 3.98 µM (inconclusive)

Compound: O=C(COc1ccc2ccccc2c1)N1CCN(Cc2c[nH]c3ccccc23)CC1
- AC50 [11]: 2.58 µM (active)
- IC50 [6]: 4.5 µM (active)
- IC50 [7]: 3.26 µM (active)

Compound: COc1cc2c(cc1OC)C1=C(C#N)COCN1CC2
- AC50 [12]: 0.644 µM (active)

Compound: C/C(=N/NC(=O)c1ccccc1)c1ccc(OCC(=O)O)cc1
- IC50 [13]: > 100 µM (inactive)
- IC50 [14]: > 100 µM (inactive)
- IC50 [15]: > 100 µM (inactive)
- IC50 [16]: > 100 µM (inactive)
- IC50 [17]: > 100 µM (inactive)
- IC50 [18]: > 100 µM (inactive)
